Key:
Type in all cases: in vivo
[1] = system: lambsquarters (Chenopodium album); assay: Test D pre-/postemergence plant response; settings: Postemergence
Method in brief: (§1)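 0 = no effect, 100 = complete control: plants were scored this way by visual comparison with controls 13 to 15 days post-treatment. Application was preemergence to sown loam/sand pots or postemergence to 2–18 cm seedlings in peat-based mix.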

[2] = system: ragweed (common ragweed, Ambrosia elatior); assay: Test D pre-/postemergence plant response; settings: Postemergence
Method in brief: as §1

[3] = system: pigweed (Amaranthus retroflexus); assay: Test D pre-/postemergence plant response; settings: Postemergence
Method in brief: as §1

[4] = system: Italian ryegrass (Lolium multiflorum); assay: Test D pre-/postemergence plant response; settings: Postemergence
Method in brief: as §1

[5] = system: blackgrass (Alopecurus myosuroides); assay: Test D pre-/postemergence plant response; settings: Postemergence; for Plant response rating, Blackgrass: scale 0 to 100, 0 no effect, 100 complete control
Method in brief: as §1

[6] = system: waterhemp (common waterhemp, Amaranthus rudis); assay: Test D pre-/postemergence plant response; settings: Postemergence
Method in brief: as §1

[7] = system: giant foxtail (Setaria faberii); assay: Test D pre-/postemergence plant response; settings: Postemergence; for Plant response rating, Foxtail, Giant: scale 0 to 100, 0 no effect, 100 complete control
Method in brief: as §1

corn (Zea mays) [8] = assay: Test D pre-/postemergence plant response; settings: Postemergence; for Plant response rating, Corn: scale 0 to 100, 0 no effect, 100 complete control
Method in brief: as §1

[9] = system: barnyardgrass (Echinochloa crus-galli); assay: Test D pre-/postemergence plant response; settings: Postemergence; for Plant response rating, Barnyardgrass: scale 0 to 100, 0 no effect, 100 complete control
Method in brief: as §1

[10] = system: morningglory (Ipomoea coccinea); assay: Test D pre-/postemergence plant response; settings: Postemergence
Method in brief: as §1

[11] = system: galium (catchweed bedstraw, Galium aparine); assay: Test D pre-/postemergence plant response; settings: Postemergence; for Plant response rating, Galium: scale 0 to 100, 0 no effect, 100 complete control
Method in brief: as §1

[12] = system: pigweed (Amaranthus retroflexus); assay: Test B pre-/postemergence plant response
Method in brief: (§2)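 Visual injury scores on a 0–100 scale (100 = complete control) relative to untreated plants, taken about 10 days post-treatment in greenhouse. Treatments were a directed preemergence soil spray and a postemergence spray at one- to two-leaf stage, using surfactant-containing solvent formulation.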

[13] = system: wheat (Triticum aestivum); assay: Test B pre-/postemergence plant response
Method in brief: as §2

[14] = system: giant foxtail (Setaria faberii); assay: Test B pre-/postemergence plant response
Method in brief: as §2

corn (Zea mays) [15] = assay: Test B pre-/postemergence plant response
Method in brief: as §2

[16] = system: barnyardgrass (Echinochloa crus-galli); assay: Test B pre-/postemergence plant response
Method in brief: as §2

[17] = 31 g ai/ha, Preemergence, 0 to 100 scale where 0 is no effect and 100 is complete control
[18] = 125 g ai/ha, postemergence, 0 to 100 scale, 0 no effect, 100 complete control
[19] = Postemergence, 31 g ai/ha, 0 to 100 scale (0 no effect, 100 complete control)
[20] = Preemergence, 125 g ai/ha, 0 to 100 scale (0 no effect, 100 complete control)
[21] = 31 g ai/ha, scale 0 to 100 (0 no effect, 100 complete control)
[22] = 62 g ai/ha, scale 0 to 100, 0 no effect, 100 complete control
[23] = 125 g ai/ha, scale 0 to 100, 0 no effect, 100 complete control

CC(F)(F)c1cc(-c2ccccc2Oc2ncc(Cl)cn2)no1 [Compound 220]
35: Plant response rating (scale 0 to 100), Morningglory ([10]; 2 g ai/ha)
5: Plant response rating (scale 0 to 100), Lambsquarters ([1]; 8 g ai/ha) | Plant response rating (scale 0 to 100), Ragweed ([2]; 2 g ai/ha) | Plant response rating (scale 0 to 100), Blackgrass ([5]; 16 g ai/ha) | Plant response rating (scale 0 to 100), Foxtail, Giant ([7]; 4 g ai/ha) | Plant response rating (scale 0 to 100), Foxtail, Giant ([7]; 8 g ai/ha) | Plant response rating (scale 0 to 100), Foxtail, Giant ([7]; 16 g ai/ha) | Plant response rating (scale 0 to 100), Corn (corn (Zea mays) [8]; 4 g ai/ha) | Plant response rating (scale 0 to 100), Corn (corn (Zea mays) [8]; 8 g ai/ha) | Plant response rating (scale 0 to 100), Corn (corn (Zea mays) [8]; 16 g ai/ha) | Plant response rating (scale 0 to 100), Barnyardgrass ([9]; 2 g ai/ha) | Plant response rating (scale 0 to 100), Barnyardgrass ([9]; 4 g ai/ha)
55: Plant response rating (scale 0 to 100), Lambsquarters ([1]; 2 g ai/ha) | Plant response rating (scale 0 to 100), Galium ([11]; 8 g ai/ha)
100: Plant response rating, Pigweed [12, 17] | Plant response rating, Pigweed [12, 18] | Plant response rating, Pigweed [12, 19] | Pigweed plant response rating [12, 20] | Foxtail, Giant plant response rating [14, 20] | Barnyardgrass plant response rating [16, 20]
50: Plant response rating (scale 0 to 100), Galium ([11]; 2 g ai/ha) | Plant response rating (scale 0 to 100), Galium ([11]; 4 g ai/ha) | Plant response rating, Wheat [13, 18]
15: Plant response rating (scale 0 to 100), Ragweed ([2]; 4 g ai/ha) | Plant response rating (scale 0 to 100), Ragweed ([2]; 8 g ai/ha) | Plant response rating (scale 0 to 100), Waterhemp ([6]; 2 g ai/ha) | Plant response rating (scale 0 to 100), Morningglory ([10]; 4 g ai/ha)
40: Plant response rating, Barnyardgrass [16, 18]
75: Plant response rating (scale 0 to 100), Pigweed ([3]; 4 g ai/ha) | Plant response rating (scale 0 to 100), Morningglory ([10]; 16 g ai/ha)
80: Plant response rating (scale 0 to 100), Pigweed ([3]; 8 g ai/ha) | Plant response rating (scale 0 to 100), Waterhemp ([6]; 16 g ai/ha) | Plant response rating, Foxtail, Giant [14, 18]
45: Plant response rating (scale 0 to 100), Lambsquarters ([1]; 4 g ai/ha)
25: Plant response rating (scale 0 to 100), Ragweed ([2]; 16 g ai/ha) | Plant response rating (scale 0 to 100), Morningglory ([10]; 8 g ai/ha)
20: Plant response rating, Corn (corn (Zea mays) [15]; [18])
60: Plant response rating (scale 0 to 100), Waterhemp ([6]; 4 g ai/ha) | Plant response rating (scale 0 to 100), Galium ([11]; 16 g ai/ha)
0: Plant response rating (scale 0 to 100), Ryegrass, Italian ([4]; 2 g ai/ha) | Plant response rating (scale 0 to 100), Ryegrass, Italian ([4]; 4 g ai/ha) | Plant response rating (scale 0 to 100), Ryegrass, Italian ([4]; 8 g ai/ha) | Plant response rating (scale 0 to 100), Ryegrass, Italian ([4]; 16 g ai/ha) | Plant response rating (scale 0 to 100), Blackgrass ([5]; 2 g ai/ha) | Plant response rating (scale 0 to 100), Blackgrass ([5]; 4 g ai/ha) | Plant response rating (scale 0 to 100), Blackgrass ([5]; 8 g ai/ha) | Plant response rating (scale 0 to 100), Foxtail, Giant ([7]; 2 g ai/ha) | Plant response rating (scale 0 to 100), Corn (corn (Zea mays) [8]; 2 g ai/ha)
30: Plant response rating, Foxtail, Giant [14, 19]
85: Plant response rating (scale 0 to 100), Pigweed ([3]; 16 g ai/ha)
10: Plant response rating (scale 0 to 100), Barnyardgrass ([9]; 8 g ai/ha) | Plant response rating (scale 0 to 100), Barnyardgrass ([9]; 16 g ai/ha) | Plant response rating, Wheat [13, 19] | Plant response rating, Corn (corn (Zea mays) [15]; [19]) | Plant response rating, Barnyardgrass [16, 17] | Plant response rating, Barnyardgrass [16, 19]
70: Plant response rating (scale 0 to 100), Lambsquarters ([1]; 16 g ai/ha) | Plant response rating (scale 0 to 100), Pigweed ([3]; 2 g ai/ha) | Plant response rating (scale 0 to 100), Waterhemp ([6]; 8 g ai/ha) | Plant response rating, Foxtail, Giant [14, 17]

CC(F)(F)c1cc(-c2ccccc2Oc2ncc(Cl)cn2)on1 [Compound 178]
60: Plant response rating, Foxtail, Giant [14, 17] | Plant response rating, Foxtail, Giant [14, 18]
40: Plant response rating, Barnyardgrass [16, 18]
25: Plant response rating (scale 0 to 100), Lambsquarters ([1]; 16 g ai/ha) | Plant response rating, Foxtail, Giant ([7]; 125 g ai/ha)
100: Morningglory plant response rating [10, 21] | Morningglory plant response rating [10, 22] | Plant response rating, Pigweed [12, 18] | Plant response rating, Pigweed [12, 19] | Pigweed plant response rating [12, 20]
80: Plant response rating (scale 0 to 100), Pigweed ([3]; 16 g ai/ha) | Waterhemp plant response rating [6, 21] | Galium plant response rating [11, 21]
35: Plant response rating, Ragweed [2, 23]
98: Plant response rating, Galium ([11]; 62 g ai/ha)
15: Plant response rating, Blackgrass ([5]; 125 g ai/ha) | Barnyardgrass plant response rating [9, 21]
5: Plant response rating (scale 0 to 100), Ragweed ([2]; 16 g ai/ha) | Ragweed plant response rating [2, 21] | Ryegrass, Italian plant response rating [4, 22] | Plant response rating, Ryegrass, Italian [4, 23] | Blackgrass plant response rating [5, 21] | Foxtail, Giant plant response rating [7, 21] | Plant response rating, Foxtail, Giant ([7]; 62 g ai/ha) | Corn plant response rating (corn (Zea mays) [8]; [21]) | Plant response rating, Corn (corn (Zea mays) [8]; 62 g ai/ha)
10: Plant response rating, Blackgrass ([5]; 62 g ai/ha) | Plant response rating, Corn (corn (Zea mays) [8]; 125 g ai/ha) | Plant response rating (scale 0 to 100), Barnyardgrass ([9]; 16 g ai/ha) | Plant response rating, Barnyardgrass ([9]; 62 g ai/ha) | Plant response rating, Wheat [13, 18] | Plant response rating, Foxtail, Giant [14, 19]
20: Ragweed plant response rating [2, 22] | Plant response rating, Barnyardgrass ([9]; 125 g ai/ha) | Plant response rating, Corn (corn (Zea mays) [15]; [18]) | Plant response rating, Barnyardgrass [16, 17]
70: Lambsquarters plant response rating [1, 21] | Plant response rating (scale 0 to 100), Waterhemp ([6]; 16 g ai/ha) | Plant response rating (scale 0 to 100), Morningglory ([10]; 16 g ai/ha) | Barnyardgrass plant response rating [16, 20]
75: Lambsquarters plant response rating [1, 22] | Plant response rating (scale 0 to 100), Galium ([11]; 16 g ai/ha)
0: Plant response rating (scale 0 to 100), Ryegrass, Italian ([4]; 16 g ai/ha) | Ryegrass, Italian plant response rating [4, 21] | Plant response rating (scale 0 to 100), Blackgrass ([5]; 16 g ai/ha) | Plant response rating (scale 0 to 100), Foxtail, Giant ([7]; 16 g ai/ha) | Plant response rating (scale 0 to 100), Corn (corn (Zea mays) [8]; 16 g ai/ha) | Plant response rating, Wheat [13, 19] | Plant response rating, Corn (corn (Zea mays) [15]; [19]) | Plant response rating, Barnyardgrass [16, 19]
85: Pigweed plant response rating [3, 21] | Pigweed plant response rating [3, 22] | Waterhemp plant response rating [6, 22] | Plant response rating, Galium ([11]; 125 g ai/ha)
90: Plant response rating, Lambsquarters [1, 23] | Plant response rating, Pigweed [3, 23] | Plant response rating, Waterhemp [6, 23] | Plant response rating, Morningglory [10, 23] | Plant response rating, Pigweed [12, 17] | Foxtail, Giant plant response rating [14, 20]

— patent publication US10131652B2, “Pyrimidinyloxy benzene derivatives as herbicides” (E. I. DU PONT DE NEMOURS AND COMPANY, priority 2014, dated 2018)
